Earlier results as cited in patent US20190037897A1, “AMORPHOUS COOLER DISPERSION COMPOSITION” (International Flavors & Fragrances Inc., priority 2016, published 2019).

Conditions: compared to menthol (as 100)

Molecule | relative cooling strength
CC1CCC(C(C)C)C(O)C1 (stereo not shown) [menthol] | 100
Ethyl 3-(p-menthane-3-carboxamido)acetate [WS-5] | 400
CCNC(=O)C1CC(C)CCC1C(C)C (stereo not shown) [WS-3, N-Ethyl-p-menthane-3-carboxamide] | 150
COc1ccc(NC(=O)[C@@H]2C[C@H](C)CC[C@H]2C(C)C)cc1 [WS-12, (1R,2S,5R)-N-(4-Methoxyphenyl)-p-menthanecarboxamide] | 150
